# Reference: US11383003B2, “Water soluble farnesol analogs and their use” (Kimberly-Clark Worldwide, Inc., priority 2012, dated 2022)
# Tests used:
# C. albicans SC5314 = assay: Germ tube formation (GTF %) in vitro screening, GlcNAc-triggered differentiation assay; format: cell-based, Candida albicans
# Protocol: Based on the results in FIG. 3, single cell suspensions of SC5314 was prepared as follows. Stock culture of C. albicans SC5314 was streaked onto YPD agar (YPDA) and incubated at 30° C. overnight. Single colonies were subcultured in YPD broth (YPDB) and incubated 30° C., 200 rpm overnight. Overnight culture in YPDB was subcultured in YPD broth again and incubated 30° C., 200 rpm 48 h. Cells were collected by centrifugation (4000 g 10 min) at 4° C., washed three times with sterile water, and then resuspended in sterile water a final concentration of 10^9 colony-forming unit/ml (cfu/ml). The suspension were stored at 4° C. at least 1 d, then subcultured into YPDB to a final concentration of 10^6 cfu/ml. After 48 h incubation, cell suspension was examined under the microscope for single cell percentage. When the single cell percentage exceeded 80%, cells were collected and washed three times with water, then resuspended in water to a final concentration of 10^9 cfu/ml, and stored at 4° C. for no more than a month.
# Two approaches were taken to determine the percentage of cells with germ tubes formed (GTF %). One way was to count the total cells at the start of incubation, and count the ungerminated cells after incubation, then calculate the GTF % as (1—ungerminated cells/total cells at 0 h)*100. Another way was to store the samples at 15° C. for 20 h after incubation, then count the germinated cells and total cells after disaggregation, then calculated the GTF % as (germinated cells/total cells after storage)*100. […] Therefore, for practical purposes, the GTF % was determined by the first method, that is, GTF %=(1—ungerminated cells/total cells at 0 h)*100, for the in vitro screening discussed herein.
# A screening medium, containing 11 mM imidazole buffer, 3 mM MgSO4, and 2.6 mM N-acetyl-D-glucosamine (GlcNAc) has been used to study the effect of farnesol analogs on the germ tube formation of C. albicans. Here, the germ tube formation of C. albicans in modified screening media was assessed with various concentrations of imidazole buffer (10 mM, 30 mM and 50 mM) and MgSO4 (0.5 mM, 1.5 mM and 3 mM). […] It took 2 h to 3 h for the GTF % to reach above 80%. For practical purposes, the screening medium, containing 11 mM imidazole buffer, 0.5 mM MgSO4, and 2.6 mM N-acetyl-D-glucosamine (GlcNAc) was adopted for in vitro screening the quorum sensing inhibitory effect of farnesol compounds.
# The in vitro screening assay was based on the N-acetylglucosamine (GlcNAc)-triggered differentiation assay (Hornby et al., “Quorum sensing in the dimorphic fungus Candida albicans is mediated by farnesol;” Applied and Environmental Microbiology 67:2982-2992; 2001), which included 0.56 ml of 0.1 M imidazole buffer (pH 6.5), 0.15 ml of 0.1 M MgSO4, 0.13 ml of 0.1 M GlcNAc, and 4.16 ml of sterilized water. Bioassays of quorum sensing candidates were conducted by the addition of the chemical, as a solution in 100% methanol, to the bioassay media; the final concentration of methanol was no greater than 1%.
# C. elegans glp4; sek1 = assay: Toxicity: death rate of C. elegans glp4; sek1 fed on E. coli OP50; details: 2 mM; worms fed on E. coli OP50; 25° C.
# Protocol: The toxicity of the selected compounds/products were tested using the C. elegans glp4; sek1 fed on E. coli OP50 (Table 5).
# Stock cultures of C. albicans SC 5314 was subcultured into 3 ml of YPD broth and incubated at 30° C. Then the overnight culture in broth was spread onto YPD agar, and incubated at 30° C. The 24 h old lawn of SC5314 was used to feed worms for 2 h at 25° C. The control were worms fed on OP50.
# The worms were washed off the YPD plates and washed twice with M9 buffer. The worms were resuspended in screening media, M9 buffer with 0.3% Tween 80. The worm suspension (50 μl) was dispensed into the wells of 96-well plates, 20-30 worms/well. Aliquots (50 μl) of compounds in screening media were added to wells, 5 wells each compound. The 96 well plates were incubated at 25° C. for up to 5 days. Live and dead worms were counted during incubation, and the death rates of worms were calculated.
# [1] = tested on: C. elegans glp4; sek1 infected with C. albicans SC5314; assay: Death rate of C. elegans glp4; sek1 infected with C. albicans SC5314, 96 well plates; format: in vivo, Caenorhabditis elegans; details: for % change in the death rate compared to the control: 25° C.
# Protocol: Caenorhabditis elegans glp4; sek1 was used as the model for […]. Breger et al. (Breger, J.; Fuchs, B. B.; Aperis, G.; Moy, T. I., Ausubel, F. M., Mylonakis, E.; “Antifungal chemical compounds identified using a C. elegans pathogenicity assay.” PLoS Pathogens 3: 168-178; 2007) reported that the glp-4 mutation rendered the strain incapable of producing progeny at 25° C., and the sek-1 mutation enhanced the sensitivity of the strain to various pathogens, thereby decreasing the time for screening assays. It was observed that no progenies was produced by the Caenorhabditis elegans glp4; sek1 strain after 3 d incubation at 25° C.
# The synchronization of C. elegans was achieved by collecting the eggs and arresting the larvae at L1 stage. The commonly used bleach treatment was able to release the eggs from the adult worms. However, it was observed that the released eggs were not always able to hatch after treated with sodium hypochlorite (0.2, 0.3, 0.4, 0.5, 0.7 or 1%) for 3-5 min. A modified egg laying method was developed to synchronize worms to L1 stage. In brief, stock cultures of C. elegans glp4; sek1, maintained on Nematode Growth Media plates (NGM plates), were subcultured onto NGM plates with OP 50 and incubated at 15° C. for 6-9 days. Then a chunk (1 cm^2) of agar with gravid adults was subcultured again onto NGM plates with OP50 and incubated at 15° C. After incubation of 3-7 days, the worms were gently washed off with 3 ml of M 9 buffer on the rotating platform (100 rpm). The plate was tilted on its lid to allow the liquid and worms drain to one side of the plate. The liquid and worms were aspirated off. The plate was washed again with M9 buffer three more times to remove OP50 as much as possible. After washing, the plate was incubated at 25° C. overnight to let the eggs hatch overnight. Since there was no OP50, the larvae were arrested at the L1 stage. The live C. elegans glp4; sek1 was quite curvy; whereas the dead C. elegans glp4; sek1 tended to be straight, and in most cases the dead worms with the hyphae of C. albicans pieced through the body. The curvy shape and movement after shaking were used as the criteria for live.
# The In vitro screening assay, based on the method of Tampakakis et al (Tampakakis, E.; Okoli, I.; Mylonakis, E.; “A C. elegans-based, whole animal, in vivo screen for the identification of antifungal compounds.” Nature Protocols 3:1925-1931; 2008), is described as follows:
# L1 worms, which were prepared by the modified egg-laying method, were collected by centrifugation at 675 g for 30 s at room temperature, and the supernatant was removed. Worms were resuspended in M 9 buffer and inoculated on NGM agar plates with OP50, ˜1000 worms per plate. After 2-3 days incubation at 25° C., the worms were washed off with M 9 buffer for the […] assay.
# The control were worms fed on OP50.
# [2] = 2.0 mM, 4 days, two replicates (* three)
# [3] = 2.0 mM, 5 days, two replicates (* three)
# [4] = key finding, no concentration stated
# [5] = 0.4 mM to 3 mM (the tested four concentrations)
compound,measurement,setting,value
O=C(O)Cc1ccccc1O [2-hydroxy phenyl acetic acid],"GTF % (mean ± SEM, n = 2)","C. albicans SC5314; 100 μM, * one replicate",90.3* %
same,"GTF % (mean ± SEM, n = 2)",C. albicans SC5314; 200 μM,71.3 ± 2.5%
COc1cc(CCN)ccc1O [3-Methoxy-4-hydroxy-phenylethyl amine],"GTF % (mean ± SEM, n = 2)","C. albicans SC5314; 100 μM, * one replicate",95.7* %
same,"GTF % (mean ± SEM, n = 2)",C. albicans SC5314; 200 μM,86.4 ± 3.3%
O=C(O)Cc1ccc(O)cc1 [4-hydroxy phenyl acetic acid],"GTF % (mean ± SEM, n = 2)","C. albicans SC5314; 100 μM, * one replicate",93.1* %
same,"GTF % (mean ± SEM, n = 2)",C. albicans SC5314; 200 μM,86.2 ± 1.8%
CC(C)=CCC/C(C)=C/CC/C(C)=C/COC(=O)CCC(=O)O [#1 synthesized analog],"GTF % (mean ± SEM, n = 2)","C. albicans SC5314; 100 μM, * one replicate",55.9 ± 8.2%
same,"GTF % (mean ± SEM, n = 2)",C. albicans SC5314; 200 μM,31.2 ± 5.0%
same,Death rate (%),C. elegans glp4; sek1,3.3 ± 1.2%
same,effect on death rate of infected C. elegans (in words),[1]; 0.4 mM to 2 mM,significantly reduced the death rate
same,% change in the death rate compared to the control,"[1]; 0.4 mM, 4 days, two replicates",−43 ± 8%
same,% change in the death rate compared to the control,"[1]; 0.4 mM, 5 days, two replicates",−30 ± 2%
same,% change in the death rate compared to the control,"[1]; 1.0 mM, 4 days, two replicates",−33 ± 5%
same,% change in the death rate compared to the control,"[1]; 1.0 mM, 5 days, two replicates",−29 ± 11%
same,% change in the death rate compared to the control,[1]; [2],−23 ± 4%
same,% change in the death rate compared to the control,[1]; [3],−34 ± 11%
same,effect on death rate of infected C. elegans (in words),[1]; 3 mM,increased the death rate
same,% change in the death rate compared to the control,"[1]; 3.0 mM, 4 days, two replicates",20 ± 3%
same,% change in the death rate compared to the control,"[1]; 3.0 mM, 5 days, two replicates",10 ± 9%
same,effect on death rate of infected C. elegans (in words),[1]; [4],significantly reduced the death rate
CC(C)=CCC/C(C)=C/CC/C(C)=C/COC(=O)CCC(=O)OCCCCO [#2 synthesized analog],"GTF % (mean ± SEM, n = 2)","C. albicans SC5314; 100 μM, * one replicate",71.2 ± 2.9%
same,"GTF % (mean ± SEM, n = 2)",C. albicans SC5314; 200 μM,33.9 ± 0.6%
same,Death rate (%),C. elegans glp4; sek1,4 ± 0.6%
same,effect on death rate of infected C. elegans (in words),[1]; [5],reduced the death rate significantly
same,% change in the death rate compared to the control,"[1]; 0.4 mM, 4 days, two replicates",−36 ± 4%
same,% change in the death rate compared to the control,"[1]; 0.4 mM, 5 days, two replicates",−38 ± 2%
same,% change in the death rate compared to the control,"[1]; 1.0 mM, 4 days, two replicates",−28 ± 5%
same,% change in the death rate compared to the control,"[1]; 1.0 mM, 5 days, two replicates",−29 ± 10%
same,% change in the death rate compared to the control,[1]; [2],−39 ± 11%
same,% change in the death rate compared to the control,[1]; [3],−39 ± 11%
same,% change in the death rate compared to the control,"[1]; 3.0 mM, 4 days, two replicates",−40 ± 0%
same,% change in the death rate compared to the control,"[1]; 3.0 mM, 5 days, two replicates",−40 ± 4%
same,effect on death rate of infected C. elegans (in words),[1]; [4],significantly reduced the death rate
CC(C)=CCC/C(C)=C/CC/C(C)=C/COC(=O)CCC(=O)OCCCO [#3 synthesized analog],"GTF % (mean ± SEM, n = 2)","C. albicans SC5314; 100 μM, * one replicate",66.9 ± 1.5%
same,"GTF % (mean ± SEM, n = 2)",C. albicans SC5314; 200 μM,32.9 ± 1.0%
same,Death rate (%),C. elegans glp4; sek1,6%
same,effect on death rate of infected C. elegans (in words),[1]; [5],did not have significant effect on the death of the worms
same,% change in the death rate compared to the control,"[1]; 0.4 mM, 4 days, two replicates",−6 ± 7%
same,% change in the death rate compared to the control,"[1]; 0.4 mM, 5 days, two replicates",10 ± 3%
same,% change in the death rate compared to the control,"[1]; 1.0 mM, 4 days, two replicates",1 ± 6%
same,% change in the death rate compared to the control,"[1]; 1.0 mM, 5 days, two replicates",3 ± 8%
same,% change in the death rate compared to the control,[1]; [2],−12 ± 9%
same,% change in the death rate compared to the control,[1]; [3],9 ± 10%
same,% change in the death rate compared to the control,"[1]; 3.0 mM, 4 days, two replicates",−2 ± 2%
same,% change in the death rate compared to the control,"[1]; 3.0 mM, 5 days, two replicates",7 ± 1%
CC(C)=CCC/C(C)=C/CC/C(C)=C/COCCCO [#6 synthesized analog],"GTF % (mean ± SEM, n = 2)","C. albicans SC5314; 100 μM, * one replicate",75.1 ± 0.5%
same,"GTF % (mean ± SEM, n = 2)",C. albicans SC5314; 200 μM,51.1 ± 3.2%
CC(C)=CCC/C(C)=C/CC/C(C)=C/COCCO [#7 synthesized analog],"GTF % (mean ± SEM, n = 2)","C. albicans SC5314; 100 μM, * one replicate",72.6 ± 1.7%
same,"GTF % (mean ± SEM, n = 2)",C. albicans SC5314; 200 μM,58.8 ± 2.1%
CC(C)=CCC/C(C)=C/CC/C(C)=C/CO[C@@H]1C(O)C(O)OC(CO)C1O (stereo partly drawn) [#8 synthesized analog],"GTF % (mean ± SEM, n = 2)","C. albicans SC5314; 100 μM, * one replicate",76.6 ± 0.3%
same,"GTF % (mean ± SEM, n = 2)",C. albicans SC5314; 200 μM,66.3 ± 0.6%
OCCc1ccc(O)c(O)c1 [hydroxytyrosol],"GTF % (mean ± SEM, n = 2)","C. albicans SC5314; 100 μM, * one replicate",78.0* %
same,"GTF % (mean ± SEM, n = 2)",C. albicans SC5314; 200 μM,84.9 ± 0.1%
OC[C@H]1O[C@@H](OCCc2ccc(O)cc2)[C@H](O)[C@@H](O)[C@@H]1O [salidroside],"GTF % (mean ± SEM, n = 2)","C. albicans SC5314; 100 μM, * one replicate",93.2* %
same,"GTF % (mean ± SEM, n = 2)",C. albicans SC5314; 200 μM,78.0 ± 5.9%
OC=Cc1ccccc1 [β-phenylethenol],"GTF % (mean ± SEM, n = 2)","C. albicans SC5314; 100 μM, * one replicate",91.7* %
same,"GTF % (mean ± SEM, n = 2)",C. albicans SC5314; 200 μM,84.5 ± 0.3%
